Laboratory results from patent US6184365A, “Anthracycline derivatives having 4-amino-2,4,6-trideoxy-2 fluoro-α-L-talopyranosyl group” (priority 1996, dated 2001).
≈ marks a conversion by molar mass, not a printed value. Entries after “also recorded” stand apart in the source; their conditions may differ.

Legend:
[1] = earlier derivatives; cited from earlier work
[2] = tested on: mouse Leukemia L-1210 cell; conditions: in vivo, cited from earlier work
[3] = tested on: various human cancer cells; conditions: in vitro; cited from earlier work
[4] = earlier derivatives; comparison with daunomycin or adriamycin; cited from earlier work
[5] = tested on: Leukemia L-1210 cells; assay: Antitumor activity against leukemia in CDF1 mice inoculated with Leukemia L-1210 cells; format: in vivo, mouse; conditions: for Increase (%) in life-span (T/C, %): i.p., once a day for 9 days, as hydrochloride
Experimental: Thus, to evaluate the antitumor effects of the novel compounds of this invention against experimental tumors in animals, CDF1 mice (four mice per group) were intraperitoneally inoculated with cells of Leukemia L-1210 at an amount of 1×10^5 cells/mouse. Since an elapse of 24 hours from the inoculation of the leukemia cells, a test compound of this invention was administered intraperitoneally to the mice under test once a day for consecutive 9 days, with the test compound being given as its hydrochloride in the form of a solution in a physiological saline. […] In the meanwhile, mice of the control group (the untreated group) were administered only with physiological saline after the inoculation of the L-1210 cells. During the observation period, the number of the surviving mice was counted for both the treated group and the control group, and the mean survival days of mice of both the treated group and the control group were calculated. Then, the percentages (%) of the increase in the life-span of the treated mice was estimated, as T/C (%), in terms of the mean survival day (C) of the untreated mice of the control group and the mean survival day (T) of the treated mice of the treated group. For comparison purposes, similar tests were effected using daunomycin (as hydrochloride) and adriamycin (as hydrochloride). The mean survival day of mice of the control group (the untreated group) was 8 to 9 days, and the mean survival day of mice of the comparative groups having received the administration of daunomycin or adriamycin usually varied dependently on the dosage of the compound tested.
Incidentally, in respect of the fractional numbers parenthesized below the numerical values of increase (%) in the life-span, the denominator of the fraction denotes the number of mice tested in one test group but the numerator of the fraction denotes the number of mice which survived for 60 days or longer.

[6] = tested on: human chronic myelogenous leukemia (K562); assay: Growth inhibition of human chronic myelogenous leukemia (K562); format: cell-based
Experimental: (§1) Adriamycin was used as a comparative compound and was tested in the same manner as above.
(§2) The different kinds of human cancer cells tested were six kinds indicated below, including human chronic myelogenous leukemia (K562), human vaginal melanoma (HMV-1), human nasopharyngeal carcinoma (KB), human gastric adenocarcinoma (MKN-1), human lung non-small cell carcinoma (PC-14) and human bladder carcinoma (T24).

[7] = tested on: human vaginal melanoma (HMV-1); assay: Growth inhibition of human vaginal melanoma (HMV-1); format: cell-based; conditions: HMV-1, 72 hours, read-out: IC50
Experimental: as §1, §2

[8] = tested on: human nasopharyngeal carcinoma (KB); assay: Growth inhibition of human nasopharyngeal carcinoma (KB); format: cell-based; conditions: KB, 72 hours, read-out: IC50
Experimental: as §1, §2

[9] = tested on: human gastric adenocarcinoma (MKN-1); assay: Growth inhibition of human gastric adenocarcinoma (MKN-1); format: cell-based
Experimental: as §1, §2

[10] = tested on: human lung non-small cell carcinoma (PC-14); assay: Growth inhibition of human lung non-small cell carcinoma (PC-14); format: cell-based
Experimental: as §1, §2

[11] = tested on: human bladder carcinoma (T24); assay: Growth inhibition of human bladder carcinoma (T24); format: cell-based
Experimental: as §1, §2

[12] = tested on: mouse leukemia P388 cells; assay: Growth inhibition of mouse leukemia P388 cells; format: cell-based; conditions: P388, 72 hours, read-out: IC50
Experimental: as §1

[13] = tested on: adriamycin-resistant P388 cells (P388/ADR); assay: Growth inhibition of adriamycin-resistant P388 cells (P388/ADR); format: cell-based, mouse
Experimental: as §1

[14] = Solubility in water; format: physicochemical
[15] = tested on: various human cancer cells; assay: in vitro tests against various human cancer cells; format: cell-based
Experimental: as §1, §2

For `COc1cccc2c1C(=O)c1c(O)c3c(c(O)c1C2=O)C[C@@](O)(C(=O)CO)C[C@@H]3O[C@@H]1O[C@@H](C)[C@H](N)[C@@H](O)[C@H]1F` [compound of the formula (D-b), 7-O-(4-amino-2,4,6-trideoxy-2-fluoro-α-L-mannopyranosyl)adriamycinone], the “solubility in water” value [1] is listed as “soluble in water”, the “antitumor activity against mouse Leukemia L-1210 cell over adriamycin” value ([2]; low dosages) is listed as “remarkably improved antitumor activity” and the “antitumor activity against experimental tumors in animals” value [2] is listed as “remarkably high antitumor activity”. For the same compound, the “anticancer activity against various human cancer cells compared with adriamycin” value [3] was “substantially as high as those of adriamycin”.
For `COc1cccc2c1C(=O)c1c(O)c3c(c(O)c1C2=O)C[C@@](O)(C(=O)CO)C[C@@H]3O[C@@H]1O[C@@H](C)[C@@H](O)[C@@H](O)[C@H]1F` [7-O-(2,6-Dideoxy-2-fluoro-α-L-talopyranosyl)adriamycinone], the “solubility in water” value [1] is given as “barely soluble in water” and the “antitumor activity” value [4] is given as “remarkable antitumor activity”.
With `COc1cccc2c1C(=O)c1c(O)c3c(c(O)c1C2=O)C[C@@](O)(C(=O)CO)C[C@@H]3O[C@@H]1O[C@@H](C)[C@@H](N)[C@@H](O)[C@H]1F` [Compound (b), 7-O-(4-amino-2,4,6-trideoxy-2-fluoro-α-L-talopyranosyl)adriamycinone] the “antitumor activity (T/C, %) compared with daunomycin” value ([5]; 0.15 mg/kg to 0.6 mg/kg) was “remarkably enhanced anticancer or antitumor activities”, the “Increase (%) in life-span (T/C, %)” value ([5]; 0.15 mg/kg/day) was 155% and the “development of toxicity in words” value ([5]; 0.3 mg/kg to 0.6 mg/kg) was “did not involve the development of toxicity; also recorded: the development of toxicities is not involved”. For the same compound, the “number of mice which survived for 60 days or longer / number tested” value (“number … for 60 days or longer / number tested” below) ([5]; 0.3 mg/kg/day) was 1/4, the “Increase (%) in life-span (T/C, %)” value ([5]; 0.3 mg/kg/day) was > 400% and the “number of the mice surviving for 60 days (fully cured)” value ([5]; 0.3 mg/kg~0.6 mg/kg, pooled) was “two in eight”. For the same compound, the “number … for 60 days or longer / number tested” value ([5]; 0.6 mg/kg/day) was 1/4, the “Increase (%) in life-span (T/C, %)” value ([5]; 0.6 mg/kg/day) was > 403% and the “number … for 60 days or longer / number tested” value ([5]; 1.25 mg/kg/day) was 1/4. The “Increase (%) in life-span (T/C, %)” value ([5]; 1.25 mg/kg/day) was > 330%, the “Increase (%) in life-span (T/C, %)” value ([5]; 2.5 mg/kg/day) was 139% and the “Increase (%) in life-span (T/C, %)” value ([5]; 5 mg/kg/day) was 92%. For the same compound, the “antitumor activity compared with adriamycin” value ([5]; 0.3~0.6 mg/kg, adriamycin at 0.3~0.6 mg/kg) was “markedly enhanced anticancer or antitumor activities”, the “antitumor activity against mouse Leukemia L-1210 cell compared with adriamycin” value ([5]; low dosages) was “substantially equal to or higher than that of adriamycin” and the IC50 ([6]; Homo sapiens, K562, 72 hours, read-out: IC50) was 0.063 mg/L (≈ 0.112 µM). For the same compound, the “anticancer activity, folds higher than that of adriamycin” value ([6]; K562) was 6.2 folds, the IC50 [7] was 0.056 mg/L (≈ 0.0997 µM) and the IC50 [8] was 0.023 mg/L (≈ 0.041 µM). For the same compound, the IC50 ([9]; Homo sapiens, MKN-1, 72 hours, read-out: IC50) was 0.062 mg/L (≈ 0.11 µM), the “anticancer activity, folds higher than that of adriamycin” value ([9]; MKN-1) was 4 folds and the IC50 ([10]; Homo sapiens, PC-14, 72 hours, read-out: IC50) was 0.12 mg/L (≈ 0.214 µM). For the same compound, the “anticancer activity, folds higher than that of adriamycin” value ([10]; PC-14) was 5.2 folds, the IC50 ([11]; Homo sapiens, T24, 72 hours, read-out: IC50) was 0.026 mg/L (≈ 0.0463 µM) and the “anticancer activity, folds higher than that of adriamycin” value ([11]; T24) was 6.2 folds. The IC50 [12] was < 0.0098 mg/L, the “anticancer activity, folds higher than that of adriamycin” value [13] was 13.9 folds and the IC50 ([13]; Mus musculus, 72 hours, read-out: IC50) was 0.18 mg/L (≈ 0.321 µM). For the same compound, the solubility [14] was 15 mg/mL (≈ 26700 µM), the “antitumor or anticancer activity compared with adriamycin” value ([15]; human cancer cells as well as mouse leukemia P388 and P388/ADR cells) was “higher antitumor or anticancer activities than those of adriamycin” and the “anticancer activities against various human cancer cells compared with adriamycin” value ([15]; in vitro) was “remarkably improved anticancer activities”.
